Reference: US20240335452A1, “COMPOSITIONS AND METHODS OF COMBINATION THERAPY FOR TARGETING LYMPHOMA” (Cullgen (Shanghai), Inc., priority 2021, published 2024)
pIC50: −log10 of the molar value. “Also recorded” adds a separate entry of the source. Values belong to the compound of their own block, whether it stands above or below them.

Key:
Assay type in all cases: cell-based, human
OCI-LY7 cells = experiment: Cell viability assay (CellTiter-Glo) in OCI-LY7 cells; conditions: for cell viability, response of the cells to the single agent: OCI-LY7, single agent, 5 days; for pIC50: Homo sapiens, 120 h, OCI-LY7 cells (EZH2-wild type), in the presence of 1 μM EPZ-6438, 5 days; for cell viability of the combination versus the compound alone (FIG. 2B, 2D): OCI-LY7, combination with any of CC-122, CC-220, or CC-92480 (so in the source)
Description: (§1) Experiments were performed in cultured human cells to assess the efficacy of combined EZH2 inhibitor and immunomodulatory drug (e.g., an IMiD) treatment using an EZH2-mutant DLBCL cell line, SU-DHL-10, and an EZH2-wild type line, OCI-LY7. Cells were purchased from Nanjing Cobioer Biotechnology. SU-DHL-10 and OCI-LY7 cells were cultured at 37° C. with 5% CO2 in RPMI 1640 Medium supplemented with 10% fetal bovine serum. Cells were authenticated using the short tandem repeat (STR) assays. Mycoplasma test results were negative.
(§2) The cultured cells were seeded at a density of 5000 cells per well in 96-well assay plates and treated with test compounds at 10 μM followed by a 11-point 3-fold serial dilution or an 8-point 10-fold serial dilution. Cell viability was determined after 5 days, using the CellTiter-Glo assay kit (Promega) according to the manufacturer's instructions. The dose-response curves were determined and IC50 values were calculated using the GraphPad Prism software following a nonlinear regression (least squares fit) method. Each data point in the figure represents the mean values of at least two technical replicates ± standard deviation.
(§3) Cells were treated with EZH2 inhibitors in the presence of IMiDs at concentrations sufficient to induce degradation of IKZF1 and IKZF3 but not enough to kill cells. CC-122 and CC-220 were tested at a concentration of 1 μM; CC-92480 and CFT7455 were tested at a concentration of 1 nM; and CC-99282 was tested at a concentration of 10 nM.

SU-DHL-10 cells [1] = experiment: Cell viability assay (CellTiter-Glo) in SU-DHL-10 cells; conditions: for cell viability, response of the cells to the single agent: SU-DHL-10, single agent; for pIC50: Homo sapiens, SU-DHL10, 120 h, SU-DHL-10 cells (EZH2-mutant DLBCL), in the presence of 1 μM EPZ-6438, 5 days; for cell viability of the combination versus the compound alone (FIG. 2A, 2C): SU-DHL-10, combination with any of CC-122, CC-220, or CC-92480 (so in the source)
Description: as §1, §2, §3

SU-DHL-10 cells [2] = experiment: as above
[3] = OCI-LY7, in the presence of 1 nM CC-92480, 5 days
[4] = OCI-LY7, in the presence of 1 μM CC-122, 5 days
[5] = OCI-LY7, in the presence of 1 μM CC-220, 5 days
[6] = SU-DHL-10, in the presence of 1 nM CC-92480, 5 days
[7] = SU-DHL-10, in the presence of 1 μM CC-122, 5 days
[8] = SU-DHL-10, in the presence of 1 μM CC-220, 5 days
[9] = OCI-LY7, in the presence of 1 nM CFT7455, 5 days
[10] = OCI-LY7, in the presence of 10 nM CC-99282, 5 days
[11] = SU-DHL-10, in the presence of 1 nM CFT7455, 5 days
[12] = SU-DHL-10, in the presence of 10 nM CC-99282, 5 days
[13] = OCI-LY7, in the presence of 1 μM C24, 5 days
[14] = OCI-LY7, in the presence of 1 μM CPI-1205, 5 days
[15] = OCI-LY7, in the presence of 1 μM EPZ-6438, 5 days
[16] = OCI-LY7, in the presence of 1 μM GSK126, 5 days
[17] = SU-DHL-10, in the presence of 1 μM CPI-1205, 5 days
[18] = SU-DHL-10, in the presence of 1 μM EPZ-6438, 5 days
[19] = SU-DHL-10, in the presence of 1 μM GSK126, 5 days
[20] = SU-DHL-10, in the presence of C24 (1 μM with CC-122, 2 μM with CC-220), 5 days

Compound: CC[C@H](C)n1cc(C)c2c(C(=O)NCc3c(C)cc(C)[nH]c3=O)cc(-c3ccc(N4CCNCC4)nc3)cc21 [GSK126, (S)-1-(sec-butyl)-N-((4,6-dimethyl-2-oxo-1,2-dihydropyridin-3-yl)methyl)-3-methyl-6-(6-(piperazin-1-yl)pyridin-3-yl)-1H-indole-4-carboxamide]
cell viability (sensitivity of the cells to the compound in combination) (OCI-LY7 cells; [3]): highly sensitive; also recorded: lowered cell viability more than treatment with GSK126 alone
cell viability (sensitivity of the cells to the compound in combination) (OCI-LY7 cells; [4]): highly sensitive; also recorded: lowered cell viability more than treatment with GSK126 alone
cell viability (sensitivity of the cells to the compound in combination) (OCI-LY7 cells; [5]): highly sensitive; also recorded: lowered cell viability more than treatment with GSK126 alone
cell viability (sensitivity of the cells to the compound in combination) (SU-DHL-10 cells [1]; [6]): highly sensitive; also recorded: lowered cell viability more than treatment with GSK126 alone
cell viability (sensitivity of the cells to the compound in combination) (SU-DHL-10 cells [1]; [7]): highly sensitive; also recorded: lowered cell viability more than treatment with GSK126 alone
cell viability (sensitivity of the cells to the compound in combination) (SU-DHL-10 cells [1]; [8]): highly sensitive; also recorded: lowered cell viability more than treatment with GSK126 alone

Compound: O=C1CC[C@H](N2C(=O)c3cccc4c(Cc5ccc(CN6CCOCC6)cc5)ccc2c34)C(=O)N1 [CFT7455, (S)-3-(6-(4-(morpholinomethyl)benzyl)-2-oxobenzo[cd]indol-1(2H)-yl)piperidine-2,6-dione]
cell viability (sensitivity of the cells to the compound in combination) (OCI-LY7 cells; OCI-LY7, in the presence of 100 nM CPI-0209): lowered cell viability more than treatment with CFT7455 alone
cell viability (sensitivity of the cells to the compound in combination) (OCI-LY7 cells; OCI-LY7, in the presence of 100 nM SHR2554): lowered cell viability more than treatment with CFT7455 alone
cell viability, response of the cells to the single agent (OCI-LY7 cells): moderately responsive
cell viability (sensitivity of the cells to the compound in combination) (SU-DHL-10 cells [2]; SU-DHL-10, in the presence of 100 nM CPI-0209): lowered cell viability more than treatment with CFT7455 alone
cell viability (sensitivity of the cells to the compound in combination) (SU-DHL-10 cells [2]; SU-DHL-10, in the presence of 100 nM SHR2554): lowered cell viability more than treatment with CFT7455 alone
cell viability, response of the cells to the single agent (SU-DHL-10 cells [1]; 5 days): moderately responsive

Compound: COC1CN(C2CCC([C@@]3(C)Oc4c(Cl)cc(C(=O)NCc5c(SC)cc(C)[nH]c5=O)c(C)c4O3)CC2)C1 (stereo partly drawn) [CPI-0209, (2R)-7-chloro-2-(4-(3-methoxyazetidin-1-yl)cyclohexyl)-2,4-dimethyl-N-((6-methyl-4-(methylthio)-2-oxo-1,2-dihydropyridin-3-yl)methyl)benzo[d][1,3]dioxole-5-carboxamide]
cell viability (sensitivity of the cells to the compound in combination) (OCI-LY7 cells; [9]): highly sensitive; also recorded: lowered cell viability more than treatment with CPI-0209 alone
cell viability (sensitivity of the cells to the compound in combination) (OCI-LY7 cells; [10]): highly sensitive; also recorded: lowered cell viability more than treatment with CPI-0209 alone
cell viability, response of the cells to the single agent (OCI-LY7 cells): modestly responsive
cell viability (sensitivity of the cells to the compound in combination) (SU-DHL-10 cells [1]; [11]): highly sensitive; also recorded: lowered cell viability more than treatment with CPI-0209 alone
cell viability (sensitivity of the cells to the compound in combination) (SU-DHL-10 cells [1]; [12]): highly sensitive; also recorded: lowered cell viability more than treatment with CPI-0209 alone
cell viability, response of the cells to the single agent (SU-DHL-10 cells [1]; 5 days): moderately responsive

Compound: CCc1c(N(CC)C2CCOCC2)cc2oc(CN3CCCCC3)cc2c1C(=O)NCc1c(C)cc(C)[nH]c1=O [SHR2554, N-((4,6-dimethyl-2-oxo-1,2-dihydropyridin-3-yl)methyl)-5-ethyl-6-(ethyl(tetrahydro-2H-pyran-4-yl)amino)-2-(piperidin-1-ylmethyl)benzofuran-4-carboxamide]
cell viability (sensitivity of the cells to the compound in combination) (OCI-LY7 cells; [9]): highly sensitive; also recorded: lowered cell viability more than treatment with SHR2554 alone
cell viability (sensitivity of the cells to the compound in combination) (OCI-LY7 cells; [10]): highly sensitive; also recorded: lowered cell viability more than treatment with SHR2554 alone
cell viability, response of the cells to the single agent (OCI-LY7 cells): refractory
cell viability (sensitivity of the cells to the compound in combination) (SU-DHL-10 cells [1]; [11]): highly sensitive; also recorded: lowered cell viability more than treatment with SHR2554 alone
cell viability (sensitivity of the cells to the compound in combination) (SU-DHL-10 cells [1]; [12]): highly sensitive; also recorded: lowered cell viability more than treatment with SHR2554 alone
cell viability, response of the cells to the single agent (SU-DHL-10 cells [1]; 5 days): modestly responsive

pIC50 (OCI-LY7 cells): 7.52
pIC50 (SU-DHL-10 cells [1]): 8.02
Compound: O=C1CC[C@H](N2Cc3c(OCc4ccc(CN5CCOCC5)cc4)cccc3C2=O)C(=O)N1 [CC-220, iberdomide]
cell viability of the combination versus the compound alone (FIG. 2B, 2D) (OCI-LY7 cells): lowered cell viability more than treatment with CC-220 alone
cell viability (sensitivity of the cells to the compound in combination) (OCI-LY7 cells; [13]): highly sensitive
cell viability (sensitivity of the cells to the compound in combination) (OCI-LY7 cells; [14]): highly sensitive
cell viability (sensitivity of the cells to the compound in combination) (OCI-LY7 cells; [15]): highly sensitive
cell viability (sensitivity of the cells to the compound in combination) (OCI-LY7 cells; [16]): highly sensitive
cell viability, response of the cells to the single agent (OCI-LY7 cells): modestly responsive
cell viability of the combination versus the compound alone (FIG. 2A, 2C) (SU-DHL-10 cells [1]): lowered cell viability more than treatment with CC-220 alone
cell viability (sensitivity of the cells to the compound in combination) (SU-DHL-10 cells [1]; [17]): highly sensitive
cell viability (sensitivity of the cells to the compound in combination) (SU-DHL-10 cells [1]; [18]): highly sensitive
cell viability (sensitivity of the cells to the compound in combination) (SU-DHL-10 cells [1]; [19]): highly sensitive
cell viability (sensitivity of the cells to the compound in combination) (SU-DHL-10 cells [1]; [20]): highly sensitive
cell viability, response of the cells to the single agent (SU-DHL-10 cells [1]; 5 days): refractory

pIC50 (OCI-LY7 cells): 6.42
pIC50 (SU-DHL-10 cells [1]): 7.05
Compound: Cc1nc2cccc(N)c2c(=O)n1C1CCC(=O)NC1=O (stereo not shown) [CC-122, avadomide]
cell viability of the combination versus the compound alone (FIG. 2B, 2D) (OCI-LY7 cells): lowered cell viability more than treatment with CC-122 alone
cell viability (sensitivity of the cells to the compound in combination) (OCI-LY7 cells; [13]): highly sensitive
cell viability (sensitivity of the cells to the compound in combination) (OCI-LY7 cells; [14]): highly sensitive
cell viability (sensitivity of the cells to the compound in combination) (OCI-LY7 cells; [15]): highly sensitive
cell viability (sensitivity of the cells to the compound in combination) (OCI-LY7 cells; [16]): highly sensitive
cell viability, response of the cells to the single agent (OCI-LY7 cells): modestly responsive
cell viability of the combination versus the compound alone (FIG. 2A, 2C) (SU-DHL-10 cells [1]): lowered cell viability more than treatment with CC-122 alone
cell viability (sensitivity of the cells to the compound in combination) (SU-DHL-10 cells [1]; [17]): highly sensitive
cell viability (sensitivity of the cells to the compound in combination) (SU-DHL-10 cells [1]; [18]): highly sensitive
cell viability (sensitivity of the cells to the compound in combination) (SU-DHL-10 cells [1]; [19]): highly sensitive
cell viability (sensitivity of the cells to the compound in combination) (SU-DHL-10 cells [1]; [20]): highly sensitive
cell viability, response of the cells to the single agent (SU-DHL-10 cells [1]; 5 days): refractory

Compound: COc1cc(C)[nH]c(=O)c1CNC(=O)c1c(C)n([C@H](C)C2CCN(CC(F)(F)F)CC2)c2ccccc12 [CPI-1205, lirametostat]
cell viability (sensitivity of the cells to the compound in combination) (OCI-LY7 cells; [3]): highly sensitive; also recorded: lowered cell viability more than treatment with CPI-1205 alone
cell viability (sensitivity of the cells to the compound in combination) (OCI-LY7 cells; [4]): highly sensitive; also recorded: lowered cell viability more than treatment with CPI-1205 alone
cell viability (sensitivity of the cells to the compound in combination) (OCI-LY7 cells; [5]): highly sensitive; also recorded: lowered cell viability more than treatment with CPI-1205 alone
cell viability (sensitivity of the cells to the compound in combination) (SU-DHL-10 cells [1]; [6]): highly sensitive; also recorded: lowered cell viability more than treatment with CPI-1205 alone
cell viability (sensitivity of the cells to the compound in combination) (SU-DHL-10 cells [1]; [7]): highly sensitive; also recorded: lowered cell viability more than treatment with CPI-1205 alone
cell viability (sensitivity of the cells to the compound in combination) (SU-DHL-10 cells [1]; [8]): highly sensitive; also recorded: lowered cell viability more than treatment with CPI-1205 alone
